# How the values were obtained:
# luciferase (Luc) mRNA [1] = experiment: Luc expression, whole body bioluminescence after intravenous administration to mice; format: in vivo; conditions: for Total Flux 3 hours / Total Flux 6 hours / Total Flux 24 hours: Luc mRNA
# Method in brief: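 Luc mRNA nanoparticle formulations given intravenously to mice (n=6) at 0.5 mg/kg; whole-body bioluminescence imaged at 3, 6 and 24 h. CD-1 mice received IP D-luciferin (200 μL of 15 mg/mL) 15 min before imaging; total flux quantified by region of interest.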
# luciferase mRNA = experiment: Luciferase expression after subcutaneous administration to mice; format: in vivo, female CD-1 mice; conditions: 0.5 mpk, relative to MC3
# Method: The effect of the lipids of the disclosure on protein expression upon subcutaneous administration was studied. Formulations containing lipids of the disclosure and an mRNA expressing luciferase or hEPO were administered subcutaneously to female CD-1 mice at 0.5 mpk. Expression levels were obtained via whole body luminescent imaging (BLI) at 3, 6 and 24 hours after injection and expression levels in liver, spleen and at the injection site were evaluated ex vivo after 24 hours. […] See also Tables 35 and 36, and FIGS. 19 and 27.
# Table 35 summarizes the luciferase expression levels using various nanoparticle compositions of the disclosure, and the luciferase expression levels using various nanoparticle compositions of the disclosure as compared to the luciferase expression level using an MC3 formulation after subcutaneous administration, as described above.
# [2] = Particle size and polydispersity index of nanoparticle compositions (Zetasizer Nano ZS); format: physicochemical
# Method in brief: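 In 1×PBS, the compositions were sized on a Zetasizer Nano ZS, which also reported their polydispersity index.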
# luciferase (Luc) mRNA [3] = experiment: Luc expression (total flux) after intramuscular administration; format: in vivo, mice; conditions: 6 hours after intramuscular administration
# Method: In order to monitor how effectively various nanoparticle compositions deliver therapeutic and/or prophylactics to targeted cells, different nanoparticle compositions including a particular therapeutic and/or prophylactic (for example, a modified or naturally occurring RNA such as an mRNA) are prepared and administered to rodent populations. Mice are intravenously, intramuscularly, intraarterially, or intratumorally administered a single dose including a nanoparticle composition with a formulation such as those provided in Example 3. In some instances, mice may be made to inhale doses. Dose sizes may range from 0.001 mg/kg to 10 mg/kg, where 10 mg/kg describes a dose including 10 mg of a therapeutic and/or prophylactic in a nanoparticle composition for each 1 kg of body mass of the mouse. A control composition including PBS may also be employed.
# Sample formulations including both modified luciferase (Luc) mRNA and H10 mRNA were prepared and administered intramuscularly and the resulting expression and immunogenicity were evaluated simultaneously. Formulations including compounds according to Formula (I), (IA), (IB), (II), (IIa), (IIb), (IIc), (IId), (IIe), (IIf), (IIg), (III), (VI), (VI-a), (VII), (VIII), (VIIa), (VIIIa), (VIIIb), (VIIb-1), (VIIb-2), (VIIb-3), (VIIc), (VIId), (VIIIc), or (VIIId) were prepared and administered at doses of 0.001 and 0.01 mpk (e.g., doses of 0.0005 mpk of a formulation including Luc mRNA and a formulation including H10 mRNA or doses of 0.005 mpk of a formulation including Luc mRNA and a formulation including H10 mRNA).
# Sample formulations including modified luciferase (Luc) mRNA prepared and administered intramuscularly and the resulting expression and immunogenicity were evaluated simultaneously. Formulations including compounds according to Formula (I), (IA), (IB), (II), (IIa), (IIb), (IIc), (IId), (IIe), (IIf), (IIg), (III), (VI), (VI-a), (VII), (VIII), (VIIa), (VIIIa), (VIIIb), (VIIb-1), (VIIb-2), (VIIb-3), (VIIc), (VIId), (VIIIc), or (VIIId) were prepared and administered at dose of and 0.01 mpk.
# [4] = Apparent (surface) pKa of the LNP formulation (TNS assay); format: physicochemical; conditions: for pKa: Table 1A
# Method in brief: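 LNP (0.04 mg/mL mRNA) mixed with TNS reagent in 21 buffers spanning about pH 3-12, in triplicate; fluorescence plotted against pH as sigmoidal curve. Apparent pKa taken as […] curve inflection point; validated in 1× PBS and 20 mM Tris w/8% sucrose.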
# [5] = Encapsulation efficiency of RNA (QUANT-IT RIBOGREEN RNA assay); format: physicochemical; conditions: for EE (%): Table 1A
# Method in brief: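 RiboGreen fluorescence (ex ~480, em ~520 nm) compared between intact samples and Triton X-100-lysed samples after 15 min at 37 °C in TE buffer, pH 7.5. Percent free RNA is the blank-corrected intact/disrupted ratio.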
# luciferase (Luc) mRNA [6] = experiment: Luc expression in liver, lung, spleen and femur 6 hours after intravenous administration; format: in vivo; conditions: mice, intravenous, 0.5 mpk
# Method in brief: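 LNP-formulated mRNA given IV to mice (n=3) at 0.5 mpk; at 6 h, bioluminescence imaged ex vivo 15 min after IP D-luciferin (15 mg/mL, 200 μL), organs imaged within 25 min. Values are total flux by region of interest.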
# IL-6, IP-10 = experiment: Cytokine induction in mice upon intravenous administration; format: in vivo; design: Cytokine induction IL-6 / Cytokine induction IP-10: unit not given here; conditions: 0.5 mpk, 6 hours; for Cytokine induction IL-6 / Cytokine induction IP-10: intravenous; for IP-10 induction: i.v., in words
# Text: The introduction of foreign material into a mammalian body induces an innate immune response that promotes cytokine production. Such immune responses to, for example, nanoparticle compositions including therapeutic and/or prophylactics, are undesirable. The induction of certain cytokines is thus measured to evaluate the […] of nanoparticle compositions. The concentrations of various cytokines in mice upon intravenous administration of nanoparticle compositions presented in Table 1A at a dosage of 0.5 mpk was measured at 6 hours. The standard MC3 formulation and a PBS control were also tested. As is evident in Table 7, IL-6 induction was highest for compositions including Compounds 1, 3, 9, 19, and 26, while IP-10 induction was highest for compositions including Compounds 3, 4, 7, 20, and 26. IL-6 induction was lowest for compositions including Compounds 4, 11, 12, and 28. IP-10 induction was lowest for compositions including Compounds 10, 11, 12, 13, 15, 17, and 18.
# [7] = Table 1A, lipid:DSPC:cholesterol:PEG-DMG 50:10:38.5:1.5 mol %
# [8] = Table 1E, compositions for subcutaneous administration
Compound,"Total Flux 3 hours (luciferase (Luc) mRNA [1]; mice, i.v., 0.5 mg/kg)","Total Flux 6 hours (luciferase (Luc) mRNA [1]; mice, i.v., 0.5 mg/kg)","Total Flux 24 hours (luciferase (Luc) mRNA [1]; mice, i.v., 0.5 mg/kg)",PDI ([2]; Table 1A),"Size (nm) [2, 7] [nm]",pKa [4],EE (%) [5] [%],Total Flux Liver (luciferase (Luc) mRNA [6]),Total Flux Lung (luciferase (Luc) mRNA [6]),Total Flux Spleen (luciferase (Luc) mRNA [6]),"Cytokine induction IL-6 (IL-6, IP-10)","Cytokine induction IP-10 (IL-6, IP-10)",Total Flux Femur (luciferase (Luc) mRNA [6]),"IP-10 induction (IL-6, IP-10)",also measured
"CCCCCCCCCOC(=O)CCCCCCCN(CCCCCCCC(=O)OC(CCCCCCCC)CCCCCCCC)CC(O)CO (stereo not shown) [Compound 69, Heptadecan-9-yl 8-((2,3-dihydroxypropyl)(8-(nonyloxy)-8-oxooctyl)amino)octanoate]",3.38E+09,7.95E+09,1.15E+08,0.13,77.2,6.92,98.4,2.24E+08,7.34E+05,2.54E+06,–,–,–,–,"Novel lipid/MC3 expression ratio, 6 hr. time point, s.c. Luc 0.5 mpk (luciferase mRNA): 0.14; PDI [2, 8]: 0.09; Size (nm) [2, 8]: 71.8 nm; Total flux (p/s) 0.01 mpk Dose (luciferase (Luc) mRNA [3]; Table 5B, 0.01 mpk): 8.83E+06 p/s; App. pKa ([4]; Table 3F): 6.95; % EE [5, 8]: 99%"
"CCCCCCCCCCCCN(CCO)CCCCCCCCCCCC(=O)OC [Compound 137, Methyl 12-(dodecyl(2-hydroxyethyl)amino)dodecanoate]",3.77E+05,5.02E+05,4.49E+05,–,–,7.06,–,6.48E+04,1.66E+04,1.32E+05,130.82,234.35,2.02E+04,–,"Total flux, 0.001 mpk Dose (luciferase (Luc) mRNA [3]; 0.001 mpk, Luc mRNA and H10 mRNA): 7.57E+04 p/s; Total flux, 0.01 mpk Dose (luciferase (Luc) mRNA [3]; 0.01 mpk, Luc mRNA and H10 mRNA): 8.09E+04 p/s"
"CCCCCCCCCOC(=O)CCCCCCCN(CCCCCCCC(=O)OC(CCCCCCCC)CCCCCCCC)CCCOC [Compound 16, Heptadecan-9-yl 8-((3-methoxypropyl)(8-(nonyloxy)-8-oxooctyl)amino) octanoate]",2.58E+08,5.45E+08,2.37E+07,0.16,119.0,5.52,91.32,3.17E+07,4.18E+05,5.43E+06,32.01,206.75,2.55E+05,–,"Fold increase in total body Luc Flux relative to MC3 at 6 h (luciferase (Luc) mRNA [1]; Table 3A, i.v. administration): 0.02"
"CCCCCCCCCOC(=O)CCCCCCCN(CCCCCCCC(=O)OC(CCCCCCCC)CCCCCCCC)CC(C)O (stereo not shown) [Compound 10, Heptadecan-9-yl 8-((2-hydroxypropyl)(8-(nonyloxy)-8-oxooctyl)amino) octanoate]",6.03E+08,2.37E+09,4.04E+07,0.18,102.9,6.09,89.60,3.22E+08,8.85E+05,8.17E+06,88.81,138.16,5.09E+05,lowest,–
"CCCCCCCCCOC(=O)CCCCCCCN(CCCCCCCC(=O)OC(CCCCCCCC)CCCCCCCC)CCOCCN(C)C [Compound 17, Heptadecan-9-yl 8-((2-(2-(dimethylamino)ethoxy)ethyl) (8-(nonyloxy)-8-oxooctyl)amino)octanoate]",7.72E+06,3.58E+06,6.79E+05,0.24,85.2,7.76,91.84,5.52E+05,9.95E+04,5.58E+06,138.43,156.41,9.55E+04,lowest,"flux at all timepoints measured (luciferase (Luc) mRNA [1]; mice, i.v., 0.5 mg/kg, 3, 6 and 24 hour, in words): significantly lower flux"
"CCCCCCCCCOC(=O)CCCCCCCN(CCCCCCCC(=O)OC(CCCCCCCC)CCCCCCCC)CC(O)CC (stereo not shown) [Compound 13, Heptadecan-9-yl 8-((2-hydroxybutyl)(8-(nonyloxy)-8-oxooctyl)amino) octanoate]",1.02E+08,1.56E+08,1.47E+06,0.13,79.4,5.67,92.28,2.25E+07,2.21E+05,7.09E+05,29.07,126.29,1.35E+05,lowest,–
